Laboratory results as given in ChEMBL document CHEMBL1909046, “DrugMatrix in vitro pharmacology data”.

Experiments:
[1] = target: T1, 5-hydroxytryptamine receptor 2C (Homo sapiens, UniProt P28335); assay: DRUGMATRIX: Serotonin (5-Hydroxytryptamine) 5-HT2C radioligand binding (ligand: [3H] Mesulergine); assay type: cell membranes, CHO-K1, Membrane; settings: Not Active = under 50% inhibition at 10 µM
T1 sequence (P28335 whole entry): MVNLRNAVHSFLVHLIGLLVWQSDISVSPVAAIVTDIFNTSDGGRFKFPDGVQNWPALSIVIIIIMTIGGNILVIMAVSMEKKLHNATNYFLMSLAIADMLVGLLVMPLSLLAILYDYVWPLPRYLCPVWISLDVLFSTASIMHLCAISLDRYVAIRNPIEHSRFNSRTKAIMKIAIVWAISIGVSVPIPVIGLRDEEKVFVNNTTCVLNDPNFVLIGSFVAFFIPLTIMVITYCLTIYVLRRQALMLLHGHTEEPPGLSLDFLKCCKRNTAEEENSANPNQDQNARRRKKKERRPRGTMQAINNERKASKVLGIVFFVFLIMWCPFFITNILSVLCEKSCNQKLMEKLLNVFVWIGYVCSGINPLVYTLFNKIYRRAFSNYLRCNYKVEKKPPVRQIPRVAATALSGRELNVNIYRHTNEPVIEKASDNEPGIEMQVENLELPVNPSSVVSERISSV

[2] = DRUGMATRIX: Glutamate, Kainate radioligand binding (ligand: [3H] Kainic acid); assay type: cell membranes, Rattus norvegicus, Wistar, Brain, Membrane; settings: Not Active = under 50% inhibition at 10 µM
[3] = target: T2, 3-hydroxy-3-methylglutaryl-coenzyme A reductase (Homo sapiens, UniProt P04035); design: species or system Escherichia coli;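 further: enzyme inhibition assay of HMG-CoA reductase using radiolabeled [14C]HMG-CoA as substrate; in other assays of this panel Not Active means under 50% inhibition at 10 µM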
T2 sequence (P04035 whole entry): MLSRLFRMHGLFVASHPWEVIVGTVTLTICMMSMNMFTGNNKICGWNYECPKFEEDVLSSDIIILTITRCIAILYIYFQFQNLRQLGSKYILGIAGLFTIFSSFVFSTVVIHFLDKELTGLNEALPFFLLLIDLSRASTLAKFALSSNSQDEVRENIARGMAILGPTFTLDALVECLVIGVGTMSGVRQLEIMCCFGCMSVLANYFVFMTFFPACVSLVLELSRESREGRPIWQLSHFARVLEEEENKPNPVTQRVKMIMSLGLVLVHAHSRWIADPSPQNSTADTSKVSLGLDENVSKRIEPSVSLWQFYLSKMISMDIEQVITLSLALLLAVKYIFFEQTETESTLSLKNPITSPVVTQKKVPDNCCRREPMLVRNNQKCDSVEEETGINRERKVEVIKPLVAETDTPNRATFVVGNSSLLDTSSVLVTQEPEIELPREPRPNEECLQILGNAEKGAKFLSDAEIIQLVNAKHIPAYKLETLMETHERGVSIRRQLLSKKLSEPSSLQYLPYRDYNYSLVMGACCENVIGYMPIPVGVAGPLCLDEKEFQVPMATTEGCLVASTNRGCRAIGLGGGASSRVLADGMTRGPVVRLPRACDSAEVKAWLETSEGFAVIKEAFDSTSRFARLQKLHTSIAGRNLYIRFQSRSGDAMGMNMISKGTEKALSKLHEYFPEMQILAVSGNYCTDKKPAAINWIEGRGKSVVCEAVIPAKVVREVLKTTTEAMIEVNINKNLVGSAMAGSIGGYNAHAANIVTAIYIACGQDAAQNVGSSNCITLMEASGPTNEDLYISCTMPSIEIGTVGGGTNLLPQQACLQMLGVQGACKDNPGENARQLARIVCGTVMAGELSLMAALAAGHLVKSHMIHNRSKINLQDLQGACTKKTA

Melanocortin receptor 3 = Melanocortin receptor 3 (Homo sapiens, UniProt P41968); assay type: cell membranes, HEK293, Membrane; settings: hek293; further: in other assays of this panel Not Active means under 50% inhibition at 10 µM
[4] = target: T3, Angiotensin-converting enzyme (Oryctolagus cuniculus, UniProt P12822); assay type: tissue-based, Lung;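 further: enzymatic inhibition of angiotensin-converting enzyme measured with FAPGG as the substrate; in other assays of this panel Not Active means under 50% inhibition at 10 µM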
T3 sequence (P12822 whole entry): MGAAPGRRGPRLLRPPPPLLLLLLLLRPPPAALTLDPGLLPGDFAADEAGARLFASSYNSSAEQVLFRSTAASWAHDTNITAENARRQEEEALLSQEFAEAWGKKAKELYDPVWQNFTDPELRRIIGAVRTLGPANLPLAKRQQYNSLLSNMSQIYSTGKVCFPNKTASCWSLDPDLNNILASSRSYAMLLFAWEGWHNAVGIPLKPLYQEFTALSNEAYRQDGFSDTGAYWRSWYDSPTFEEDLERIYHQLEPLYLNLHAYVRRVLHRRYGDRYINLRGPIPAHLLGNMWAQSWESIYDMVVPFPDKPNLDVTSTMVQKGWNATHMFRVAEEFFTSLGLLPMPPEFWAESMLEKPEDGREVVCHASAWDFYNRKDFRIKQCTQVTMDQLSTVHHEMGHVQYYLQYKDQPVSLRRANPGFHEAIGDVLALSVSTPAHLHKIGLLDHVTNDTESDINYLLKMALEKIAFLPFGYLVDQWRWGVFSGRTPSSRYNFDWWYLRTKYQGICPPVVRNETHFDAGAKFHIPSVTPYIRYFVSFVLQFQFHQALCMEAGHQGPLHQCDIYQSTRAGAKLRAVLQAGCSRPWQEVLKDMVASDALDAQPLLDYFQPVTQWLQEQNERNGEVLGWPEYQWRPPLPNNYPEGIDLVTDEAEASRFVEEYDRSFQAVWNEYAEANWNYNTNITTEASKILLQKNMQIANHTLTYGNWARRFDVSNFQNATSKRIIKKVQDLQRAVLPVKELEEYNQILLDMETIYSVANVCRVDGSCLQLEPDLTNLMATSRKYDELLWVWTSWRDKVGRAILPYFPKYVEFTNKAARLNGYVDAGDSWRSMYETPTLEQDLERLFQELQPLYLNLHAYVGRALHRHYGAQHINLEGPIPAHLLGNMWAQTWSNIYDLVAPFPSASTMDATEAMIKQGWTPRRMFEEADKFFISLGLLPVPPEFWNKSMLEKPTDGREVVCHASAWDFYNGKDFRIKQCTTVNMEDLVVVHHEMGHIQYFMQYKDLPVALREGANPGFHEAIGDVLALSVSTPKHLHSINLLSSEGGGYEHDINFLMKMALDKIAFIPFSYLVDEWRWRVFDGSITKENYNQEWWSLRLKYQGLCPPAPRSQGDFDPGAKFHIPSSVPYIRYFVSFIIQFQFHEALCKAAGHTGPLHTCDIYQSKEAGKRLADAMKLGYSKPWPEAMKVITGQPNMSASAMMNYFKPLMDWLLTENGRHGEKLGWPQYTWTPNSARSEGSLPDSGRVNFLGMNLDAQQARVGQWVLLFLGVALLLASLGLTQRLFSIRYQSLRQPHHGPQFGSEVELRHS

[5] = target: Mitogen-activated protein kinase 3 (Homo sapiens, UniProt P27361); assay: DRUGMATRIX: Protein Serine/Threonine Kinase, ERK1 enzyme inhibition (substrate: Myelin Basic Protein); design: species or system Escherichia coli; settings: Not Active = under 50% inhibition at 10 µM
[6] = target: Mitogen-activated protein kinase 14 (Homo sapiens, UniProt Q16539); design: species or system Escherichia coli;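 further: inhibition of p38alpha enzyme activity in a biochemical kinase assay, with myelin basic protein serving as substrate; in other assays of this panel Not Active means under 50% inhibition at 10 µM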
Sequence of Mitogen-activated protein kinase 14 (Q16539 whole entry): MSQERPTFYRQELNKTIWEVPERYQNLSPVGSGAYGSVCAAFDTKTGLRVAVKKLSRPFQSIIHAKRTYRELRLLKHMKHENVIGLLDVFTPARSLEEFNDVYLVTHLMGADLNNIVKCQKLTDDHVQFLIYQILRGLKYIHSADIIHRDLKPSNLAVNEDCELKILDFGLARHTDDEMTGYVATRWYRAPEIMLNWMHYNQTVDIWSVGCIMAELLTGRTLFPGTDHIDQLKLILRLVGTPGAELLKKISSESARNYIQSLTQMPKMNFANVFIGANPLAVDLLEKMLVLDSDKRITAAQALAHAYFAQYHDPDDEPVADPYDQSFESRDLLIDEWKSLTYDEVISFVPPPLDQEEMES

Sequence of Mitogen-activated protein kinase 3 (P27361 whole entry): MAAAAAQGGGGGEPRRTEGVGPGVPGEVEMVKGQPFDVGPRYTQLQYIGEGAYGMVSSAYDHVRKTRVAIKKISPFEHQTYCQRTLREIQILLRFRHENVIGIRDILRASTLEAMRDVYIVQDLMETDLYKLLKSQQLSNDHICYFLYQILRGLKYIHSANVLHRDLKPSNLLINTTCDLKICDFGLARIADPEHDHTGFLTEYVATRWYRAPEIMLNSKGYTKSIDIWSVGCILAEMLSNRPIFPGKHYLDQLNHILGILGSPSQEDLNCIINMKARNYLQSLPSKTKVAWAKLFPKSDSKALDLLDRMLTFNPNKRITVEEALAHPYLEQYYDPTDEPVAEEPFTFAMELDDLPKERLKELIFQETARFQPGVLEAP
Sequence of Melanocortin receptor 3 (P41968 whole entry): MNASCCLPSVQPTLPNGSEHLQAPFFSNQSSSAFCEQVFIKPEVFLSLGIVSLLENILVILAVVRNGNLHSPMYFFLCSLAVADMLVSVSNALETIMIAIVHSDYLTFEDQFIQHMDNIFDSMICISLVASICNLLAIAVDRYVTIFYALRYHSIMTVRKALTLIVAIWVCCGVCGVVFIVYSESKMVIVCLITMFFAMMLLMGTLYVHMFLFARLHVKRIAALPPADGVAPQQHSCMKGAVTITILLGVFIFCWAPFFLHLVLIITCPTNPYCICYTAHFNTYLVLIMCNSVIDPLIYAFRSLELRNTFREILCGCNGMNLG

Nc1ccn([C@@H]2O[C@H](CO)[C@@H](O)C2(F)F)c(=O)n1 [GEMCITABINE]
IC50 ([1]; cho-k1): Not Active | IC50 [2]: Not Active | Ki [2]: Not Active | IC50 [3]: Not Active | IC50 (Melanocortin receptor 3): Not Active | IC50 [4]: Not Active | IC50 [5]: Not Active | IC50 [6]: Not Active

CCC1(CCC(C)C)C(=O)NC(=O)NC1=O [AMOBARBITAL]
IC50 ([1]; cho-k1): Not Active | IC50 [2]: Not Active | Ki [2]: Not Active | IC50 [3]: Not Active | IC50 (Melanocortin receptor 3): Not Active | IC50 [4]: Not Active | IC50 [5]: Not Active | IC50 [6]: Not Active

O=C(O)c1cccnc1Nc1cccc(C(F)(F)F)c1 [NIFLUMIC ACID]
IC50 ([1]; cho-k1): Not Active | IC50 [2]: Not Active | Ki [2]: Not Active | IC50 [3]: Not Active | IC50 (Melanocortin receptor 3): Not Active | IC50 [4]: Not Active | IC50 [5]: Not Active | IC50 [6]: Not Active

Cn1c(=O)c2[nH]cnc2n(C)c1=O.Cn1c(=O)c2[nH]cnc2n(C)c1=O.NCCN [AMINOPHYLLINE]
IC50 ([1]; cho-k1): Not Active | IC50 [2]: Not Active | Ki [2]: Not Active | IC50 [3]: Not Active | IC50 (Melanocortin receptor 3): Not Active | IC50 [4]: Not Active | IC50 [5]: Not Active | IC50 [6]: Not Active

GENTAMICIN
IC50 ([1]; cho-k1): Not Active | Ki ([1]; cho-k1): Not Active | IC50 [2]: Not Active | Ki [2]: Not Active | IC50 [3]: Not Active | Ki [3]: Not Active | IC50 (Melanocortin receptor 3): Not Active | Ki (Melanocortin receptor 3): Not Active | IC50 [4]: Not Active | Ki [4]: Not Active | IC50 [5]: Not Active | Ki [5]: Not Active | IC50 [6]: Not Active | Ki [6]: Not Active

C=CCc1ccc(O)c(OC)c1 [EUGENOL]
IC50 ([1]; cho-k1): Not Active | IC50 [2]: Not Active | Ki [2]: Not Active | IC50 [3]: Not Active | IC50 (Melanocortin receptor 3): Not Active | IC50 [4]: Not Active | IC50 [5]: Not Active | IC50 [6]: Not Active

COc1ccc2[nH]cc(CCNC(C)=O)c2c1 [MELATONIN]
IC50 ([1]; cho-k1): Not Active | IC50 [2]: Not Active | Ki [2]: Not Active | IC50 [3]: Not Active | IC50 (Melanocortin receptor 3): Not Active | IC50 [4]: Not Active | IC50 [5]: Not Active | IC50 [6]: Not Active

CC(C)NCC(O)COc1cccc2[nH]ccc12 (centres undefined) [PINDOLOL]
IC50 ([1]; cho-k1): Not Active | IC50 [2]: Not Active | Ki [2]: Not Active | IC50 [3]: Not Active | IC50 (Melanocortin receptor 3): Not Active | IC50 [4]: Not Active | IC50 [5]: Not Active | IC50 [6]: Not Active

N=C(N)NC(=O)Cc1c(Cl)cccc1Cl [GUANFACINE]
IC50 ([1]; read-out: IC50): 1450 nM | Ki ([1]; read-out: Ki): 761 nM | IC50 [2]: Not Active | Ki [2]: Not Active | IC50 [3]: Not Active | IC50 (Melanocortin receptor 3): Not Active | IC50 [4]: Not Active | IC50 [5]: Not Active | IC50 [6]: Not Active
